Laboratory results reported in ChEMBL document CHEMBL4765406 (Eur J Med Chem, 2020).
Calls of active or inactive are those of the source. The rule behind the calls is not given here.

Columns and labels:
[1] = biological target: T1, Tyrosine-protein kinase BTK (Homo sapiens, UniProt Q06187); experiment: Inhibition of BTK (unknown origin) using poly(Glu, Tyr) 4:1 as substrate incubated in presence of [gamma33P]ATP by image analyser
[2] = biological target: T1, Tyrosine-protein kinase BTK; experiment: Inhibition of BTK in human Ramos cells assessed as reduction in anti-human IgM F(ab)2-induced BCR mediated PLCgamma2 phosphorylation preincubated for 10 mins followed by stimulated with antihuman IgM F(ab)2 incubated for 60 mins by Western blot analysis; assay type: cell-based; settings: time 70.0 min
[3] = biological target: T1, Tyrosine-protein kinase BTK; experiment: Inhibition of BTK in human Ramos cells assessed as reduction in anti-human IgM F(ab)2-induced BTK phosphorylation at Tyr223 residue preincubated for 10 mins followed by stimulated with antihuman IgM F(ab)2 incubated for 60 mins by Western blot analysis; assay type: cell-based; settings: time 1.0 hrs
[4] = biological target: T1, Tyrosine-protein kinase BTK; experiment: Inhibition of BTK in human Ramos cells assessed as reduction in anti-human IgM F(ab)2-induced BTK phosphorylation at Tyr551 residue preincubated for 10 mins followed by stimulated with antihuman IgM F(ab)2 incubated for 60 mins by Western blot analysis; assay type: cell-based; settings: time 70.0 min
[5] = biological target: T1, Tyrosine-protein kinase BTK; experiment: Inhibition of BTK in human Ramos cells assessed as reduction in anti-human IgM F(ab)2-induced ERK phosphorylation preincubated for 10 mins followed by stimulated with antihuman IgM F(ab)2 incubated for 60 mins by Western blot analysis; assay type: cell-based; settings: time 70.0 min

T1 sequence (Q06187 whole entry): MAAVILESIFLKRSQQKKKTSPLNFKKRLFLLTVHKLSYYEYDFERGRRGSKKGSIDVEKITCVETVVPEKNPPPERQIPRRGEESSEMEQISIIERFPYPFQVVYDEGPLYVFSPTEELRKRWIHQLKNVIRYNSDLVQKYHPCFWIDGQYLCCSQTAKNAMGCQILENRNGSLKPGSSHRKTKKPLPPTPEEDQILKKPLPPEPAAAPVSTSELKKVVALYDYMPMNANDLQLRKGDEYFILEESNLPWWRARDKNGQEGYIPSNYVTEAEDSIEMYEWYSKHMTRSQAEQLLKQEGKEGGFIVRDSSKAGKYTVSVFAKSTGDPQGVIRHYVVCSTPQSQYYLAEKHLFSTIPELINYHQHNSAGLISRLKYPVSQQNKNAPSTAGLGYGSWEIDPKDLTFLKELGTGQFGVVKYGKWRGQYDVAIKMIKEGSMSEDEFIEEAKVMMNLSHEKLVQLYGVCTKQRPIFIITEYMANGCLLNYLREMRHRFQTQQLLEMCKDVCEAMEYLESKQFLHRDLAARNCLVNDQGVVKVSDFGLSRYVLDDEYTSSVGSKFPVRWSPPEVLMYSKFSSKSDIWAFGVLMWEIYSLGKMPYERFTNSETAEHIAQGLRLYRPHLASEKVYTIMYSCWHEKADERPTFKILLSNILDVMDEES

SMILES | IC50 [1] [nM] | inhibition [2] | inhibition [3] | inhibition [4] | inhibition [5]
c1cc2nc(-c3ccc4cn[nH]c4c3)nc(Nc3ccc(N4CCOCC4)cc3)c2[nH]1 | > 20000 | – | – | – | –
c1nc2c(Nc3ccc(N4CCOCC4)cc3)cc(-c3ccc4cn[nH]c4c3)nc2[nH]1 | 1450 | – | – | – | –
c1cn2cc(-c3ccc4cn[nH]c4c3)nc(Nc3ccc(N4CCOCC4)cc3)c2n1 [ENTOSPLETINIB] | 801 | Active | Active | Active | Active

These reach a lower IC50 [1]. Values come first.

IC50 [1] [nM] | inhibition [2] | inhibition [3] | inhibition [4] | inhibition [5] | SMILES
167 | – | – | – | – | c1cc(N2CCOCC2)ccc1Nc1nc(-c2ccc3cn[nH]c3c2)nc2[nH]ncc12
369 | – | – | – | inactive | c1nc2c(Nc3ccc(N4CCOCC4)cc3)nc(-c3ccc4cn[nH]c4c3)cc2[nH]1
73 | – | – | – | – | c1nc2c(Nc3ccc(N4CCOCC4)cc3)nc(-c3ccc4cn[nH]c4c3)nc2[nH]1
